Columns and labels:
YAP = test: TEAD-LUC activation assay (293A-TEAD-LUC reporter); assay type: cell-based; details: Homo sapiens, Table 3; read-out: TEAD-LUC activation assay EC50
Excerpt: More specifically, we used a 293A cell line harboring a stably integrated cassette containing 8 copies of the TEAD binding element upstream of luciferase (8xGTII-LUC). These cells retain responsiveness to contact inhibition-induced decreases in YAP transcriptional output.^6 The TEAD-responsive reporter assay (called 293A-TEAD-LUC throughout) was adapted to 1536-well format and then used to screen a library of ˜738k compounds for YAP-inducing activity.
Additional compounds of the present disclosure were subjected to the assay described above.

[1] = Cytotoxicity in the TEAD-LUC activation assay; details: human

SMILES	EC50 (YAP) [µM]	IC50 [1] [µM]
O=C(NCCCn1cccc1)c1cc(-c2cccc(Cl)c2)on1 [Compound 1]	> 20	> 20
O=C(NCCCn1cccc1)c1cc(-c2ccc(F)cc2)on1 [Compound 2]	1.13	> 20
COc1ccc(-c2cc(C(=O)NCCCn3cccc3)no2)cc1 [Compound 3]	> 20	> 20
O=C(NCCCn1ccc2ccccc21)c1cc(-c2ccccc2)on1 [Compound 4]	1.41	> 20
O=C(NCCCN1CCCC1)c1cc(-c2ccccc2)on1 [Compound 5]	> 20	> 20
O=C(NCCCNc1ccccc1)c1cc(-c2ccccc2)on1 [Compound 6]	0.91	> 20
O=C(NCCCn1nccn1)c1cc(-c2ccccc2)on1 [Compound 7]	1.13	> 20
O=C(NCCCn1cccc1)c1cc(-c2cccc(F)c2)on1 [Compound 9]	> 20	> 20
O=C(NCCCn1cccc1)c1cc(-c2ccccc2)[nH]n1 [Compound 10]	> 20	> 20
Cn1nc(C(=O)NCCCn2cccc2)cc1-c1ccccc1 [Compound 11]	> 20	> 20
O=C(NCCCCn1cccc1)c1cc(-c2ccccc2)on1 [Compound 12]	1.88	> 20
O=C(NCCCn1ccnn1)c1cc(-c2ccccc2)on1 [Compound 14]	1.93	> 20
O=C(NCCn1cccc1)c1cc(-c2ccccc2)on1 [Compound 15]	1.87	> 20
O=C(NCCCn1cccc1)c1cc(-c2ccccc2F)on1 [Compound 16]	1.27	> 20
Cc1c(C(=O)NCCCn2cccc2)noc1-c1ccccc1 [Compound 18]	> 20	> 20
Cc1ccn(CCCNC(=O)c2cc(-c3ccccc3)on2)c1 [Compound 19]	5.16	> 20

SMILES	EC50 (YAP) [µM]	IC50 [1] [µM]
N#Cc1ccc(-c2cc(C(=O)NCCCn3cccc3)no2)cc1 [Compound 20]	> 20	> 20
O=C(NCCCn1cccc1)c1cc(-c2cccnc2)on1 [Compound 21]	> 20	> 20
O=C(NCCCn1cccc1)c1noc(-c2ccccc2)n1 [Compound 22]	> 20	> 20
CN(CCCNC(=O)c1cc(-c2ccccc2)on1)S(C)(=O)=O [Compound 24]	2.76	> 20
O=C(NCCCn1ccc(-c2ccccc2)c1)c1cc(-c2ccccc2)on1 [Compound 26]	> 20	> 20
O=C(NCCCc1ncco1)c1cc(-c2ccccc2)on1 [Compound 27]	3.8	> 20
O=C(NCCCc1ncno1)c1cc(-c2ccccc2)on1 [Compound 28]	1.67	> 20
O=C(NCCCn1cccc1)c1cc(-c2ccncc2)on1 [Compound 29]	> 20	> 20
O=C(NCCCn1cccc1)c1noc2c1OCc1ccccc1-2 [Compound 31]	> 20	> 20
NC(=O)c1ccc(-c2cc(C(=O)NCCCc3nccs3)no2)cc1 [Compound 32]	> 20	> 20
O=C(NCCCc1nccs1)c1noc(-c2ccccc2)c1-c1ccccc1 [Compound 33]	> 20	> 24
O=C(NCCCc1nccs1)c1noc2ccccc12 [Compound 34]	> 20	> 20
O=C(NCCCc1nccs1)c1cn2ccccc2n1 [Compound 35]	> 20	> 20
CC(=O)N1CCN(CCCNC(=O)c2cc(-c3ccccc3)on2)CC1 [Compound 36]	4.36	> 20
O=C(Nc1cccc(-c2nccs2)c1)c1cc(-c2ccccc2)on1 [Compound 37]	15	> 20
O=C(NCCCN1CCN(C(=O)c2ccccc2)CC1)c1cc(-c2ccccc2)on1 [Compound 38]	3.34	> 20
